Results on 13 compounds are retold here after PMC12573178, “Substrate-Guided Development of HDAC11-Selective Inhibitors Featuring α‑Amino Amide Zinc-Binding Groups” (ACS Omega, 2025).

Values joined by “and” are separate entries in the source; they are usually repeats but may differ in a detail not shown here. Identical values can stand only once. “Also recorded” adds a separate entry of the source. Like-named read-outs stand apart in the source and are kept apart here. Residues, ends and D or L forms follow the SMILES beside them. No end group written: not given here. ξ: configuration not given here. *: point of attachment. ξGly(tetradecyl) = CCCCCCCCCCCCCCC(N)C(=O)O; Myristoyl = CCCCCCCCCCCCCC(=O)*; X1 = CCCCCCCCCCCCCCC(S)C(=O)*

Series [1] has as its target T1, HDAC11 (Homo sapiens, UniProt Q96DB2).
T1 sequence (Q96DB2 1-347): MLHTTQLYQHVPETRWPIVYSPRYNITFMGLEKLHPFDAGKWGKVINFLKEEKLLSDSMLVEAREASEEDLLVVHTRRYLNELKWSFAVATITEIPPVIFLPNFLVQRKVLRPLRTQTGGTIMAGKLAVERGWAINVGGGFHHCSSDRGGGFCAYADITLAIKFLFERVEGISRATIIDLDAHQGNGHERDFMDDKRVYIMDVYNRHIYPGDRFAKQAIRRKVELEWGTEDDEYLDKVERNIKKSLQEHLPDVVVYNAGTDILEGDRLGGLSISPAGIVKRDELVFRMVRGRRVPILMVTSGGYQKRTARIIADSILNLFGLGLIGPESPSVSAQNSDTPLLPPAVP
Put plainly: Substrate assay: incubation with HDAC11, UPLC-MS analysis of cleavage product. The conditions noted are these: 50 μM compound, 10 or 100 nM HDAC11, 37 °C, 24 h. The series is classed as biochemical. The method, then: Because acylated H3K9 peptides are known to be substrates of HDAC11, , it had to be analyzed if the presence of a substitution in close proximity to the hydrolyzable amide bond is sufficient to suppress the deacylation of the compound by HDAC11, thereby transforming a substrate into an inhibitor. Accordingly, 50 μM of the most promising compounds, specifically 2, 10, 17, and 18, were incubated in the presence of 10 or 100 nM of HDAC11 at 37 °C for 24 h, followed by UPLC–MS analysis. […] Consequently, compounds 17 and 18 were excluded from further analyses.
The peptides were incubated at 50 μM, together with 10 or 100 nM HDAC11 in HDAC11 buffer for 24 h at 37 °C. The solution was then analyzed using UPLC–MS.
F. UPLC-MS Data of the substrate test
In order to ascertain whether peptides 2, 10, 17 and 18 are possible substrates of HDAC11, 50 µM of the peptides were incubated with 100 nM HDAC11 for 24 hours at 37°C. Subsequently, a sample of the solutions was subjected to analysis using UPLC-MS. The presence of the double-charged peptide representing the expected cleavage product Ac-TARKSTG-NH2 of 2, 10, 17 and 18 with the m/z ratio of [M+2H]2+ (381.45) was taken as an indicator of a HDAC11-catalysed reaction. […]
exclusively HDAC11 in the assay buffer. No signal indicative for the product peptide was detected. […]
Absorbance at 220 nm is shown. […]

Series [2] in a line: Stability in aqueous solution. The series is classed as physicochemical. The conditions noted are these: 37 °C for 24 h.
The target in series [3] is T1, HDAC11. Put plainly: HDAC11 inhibition, continuous fluorescence-based assay with fatty-acylated peptide substrate. The conditions noted are these: for IC50: substrate Ac-EALPK(11-Abz-Aun)KY(3-NO2)GG-NH2 20 µM, triplicate, read-out: IC50 against HDAC11; for IC50 increase compared to 28: HDAC11. The series is classed as biochemical. The method, then:
Inhibition of the enzymatic activity of HDACs was performed continuously for HDAC8, HDAC11, and SIRT2 and discontinuously for SIRT2, 3, and 6 using adequate substrates as described previously. , Experimental details are given in the Supporting Information.
A. HDAC and SIRT deacylase activity assays
Continuous in vitro HDAC inhibition assays
The inhibitors were tested using 384-well plates (GreinerONe). After 5 min of incubation of the inhibitors together with the respective enzymes (HDAC8 = 2 nM, HDAC11 = 20 nM, SIRT2 = 1 nM), the reactions were always started by the addition of substrate for the Zn2+-dependent HDAC and by the addition of NAD+ for SIRT2. The reactions were performed in either HDAC8 buffer (20 mM HEPES, 140 mM NaCl, 10 mM MgCl 2, 1 mM tris(2-carboxyethyl)phosphine (TCEP), and 0.2 mg/ml BSA, pH 7.4 adjusted with NaOH), HDAC11 buffer (20 mM HEPES, 70 µM TCEP and 2 mg/ml BSA, pH 7.4 adjusted with NaOH) or SIRT buffer (20 mM Tris, 150 mM NaCl, 5 mM MgCl2 and 2 mg/ml BSA pH 7.8 adjusted with HCl), respectively. The thiotrifluoracetylated substrate Abz-SRGGK(thio-TFA)FFRR-NH2 (50 µM) […]
Aun is N-(2-aminobenzoyl)-11-aminoundecanoyl, was used for HDAC11 and Ac-EALPKK(Myr)T-C(Fluorescein)-G-NH2 (40 nM) was used for SIRT2 1-3.
The fluorescence increase was followed for 1 h with two reads per min using a PerkinElmer Envision […]
The excitation wavelength for HDAC8 and 11 was 320 ± 8 nm and the […]
Positive (enzyme, substrate, DMSO, and buffer) and negative
(substrate, DMSO, and Buffer) controls were included in every measurement and were set as 100% and 0%, respectively. The measured values were normalized accordingly. All tests were performed in triplicates. The data were fitted using the GraphPad Prism8 software and kinetic values calculated through non-linear regression analysis. […]

Series [4] concerns the target T1, HDAC11. Put plainly: Microscale thermophoresis (MST) binding. The conditions noted are these: 20 nM 32, varying concentrations of HDAC11, 25 °C. As to the method: Microscale thermophoresis (MST) was performed using a Monolith NT.115 (Nanotemper) with standard capillaries (MO-K022). The reaction solution contained a dilution series (1:1) of 16 different concentrations of HDAC11 (0.48 nM to 16 μM) and 20 nM 32 in MST buffer (20 mM MOPS buffer (pH 7.4 adjusted with NaOH), 0.2 mg/mL BSA, and 70 μM TCEP) and 5% (v/v) DMSO. After 5 min of incubation, the samples were loaded into capillaries and measured at 25 °C with a Filter Nano-BLUE at an excitation power of 20% and an MST power of 40%. The resulting data were fitted by MO.Affinity Analysis software (Nanotemper) via MST curves and fluorescence signals.
(In general: Microscale thermophoresis detects binding through changes in fluorescence in a small temperature gradient.)

Series [5] addresses T1, HDAC11. More on the design: method as in not printed per compound. The note with it: literature values, Figure 1; ref not printed per compound; read-out: IC50 as reported for HDAC11; cited from earlier work.
Series [6] relates to global protein fatty acylation. More on the design: method as in previous studies (number not given). The conditions noted are these: treatment with pan-HDAC inhibitor; ref previous studies (number not given); cited from earlier work.
The target of series [7] is T1, HDAC11. Also noted: method as in number not given. The note with it: myristoylated 12-mer peptide; ref number not given; read-out: KM value as substrate of HDAC11; cited from earlier work.

As for `CCCCCCCCCCCCCCC(S)C(=O)NCCCC[C@H](NC(=O)[C@H](CCCNC(=N)N)NC(=O)[C@H](C)NC(=O)[C@@H](NC(C)=O)[C@@H](C)O)C(=O)N[C@@H](CO)C(=O)N[C@H](C(=O)NCC(N)=O)[C@@H](C)O` (stereo partly shown) [Compound 2] (Ac-TARK(X1)STG-NH2; N-terminus and C-terminus assumed), the “Substrate properties / hydrolysis by HDAC11” value in series [1] is “no single recognisable peak is present at the expected time; also recorded: not able to hydrolyze”. Moreover, the “Stability in aqueous solution” value in series [2] is “completely stable”.

With `CCCCCCCCCCCCCCC(N)C(=O)NCCCC[C@H](NC(=O)[C@H](CCCNC(=N)N)NC(=O)[C@H](C)NC(=O)[C@@H](NC(C)=O)[C@@H](C)O)C(=O)N[C@@H](CO)C(=O)N[C@H](C(=O)NCC(N)=O)[C@@H](C)O` (stereo partly shown) [Compound 10] (Ac-TARK(ξGly(tetradecyl))STG-NH2; N-terminus and C-terminus assumed), the “Substrate properties / hydrolysis by HDAC11” value in series [1] is “no single recognisable peak is present at the expected time; also recorded: not able to hydrolyze”. For the same compound, in series [2], the “Stability in aqueous solution” value was “completely stable”.

On to `CCCCCCSC[C@@H](N)C(=O)NCCCCC` [Compound 25], for which the IC50 in series [3] was 0.904 ± 0.118 µM.

As to `CCCCCCCCSC[C@@H](N)C(=O)NCCCCC` [Compound 26], the IC50 in series [3] came out at 0.399 ± 0.06 µM.

On to `CCCCCCCCCCSC[C@@H](N)C(=O)NCCCCC` [Compound 27], for which the IC50 in series [3] came to 0.15 ± 0.0107 µM.

Turning to `CCCCCCCCCCCCSC[C@@H](N)C(=O)NCCCCC` [Compound 28], the IC50 in series [3] worked out at 0.0561 ± 0.006 µM.

Turning to `CCCCCCCCCCCCSC[C@@H](N)C(=O)NCc1cn(C)nn1` [Compound 29], the “IC50 increase compared to 28” value in series [3] was “more than 10 fold”.

Consider `CCCCCCCCCCCCSC[C@@H](N)C(=O)N1Cc2ccccc2C1` [Compound 30], for which the “IC50 increase compared to 28” value in series [3] is reported as “more than 10 fold”.

Take `CCCCCCCCCCCCSC[C@@H](N)C(=O)NCCCC[C@H](NC(=O)[C@H](CCCCN)NC(=O)CCC(=O)NCCCOCCOCCOCCCNC(=O)c1ccc2c(c1)C(=O)OC21c2ccc(O)cc2Oc2cc(O)ccc21)C(N)=O` [Compound 32]: the IC50 in series [3] turned out to be 0.537 µM. Also, in series [4], the Kd is 0.271 µM and 0.27 µM.

As for `CCCCCOCCCCCNNC(=O)c1ccc(CNC(=O)c2ccccc2)cc1` [Compound B6], the IC50 in series [5] was 0.0511 µM.

For `C/C=C1\NC(=O)[C@H]2CSSCC/C=C/[C@H](CC(=O)N[C@H](C(C)C)C(=O)N2)OC(=O)[C@H](C(C)C)NC1=O` [Romidepsin (FK-228), Romidepsin], the IC50 in series [5] was 2.7 µM.

As to `O=C(CCCCCCC(=O)Nc1ccccc1)NO` [Vorinostat (SAHA), vorinostat], the “Global protein fatty acylation” value in series [6] is “decrease in global protein fatty acylation”.

On to KQTARK(Myristoyl)STGGWW [H3K9(Myr)], for which the Km in series [7] was 17.3 µM.

A word on the IC50: it is the concentration that inhibits the measured activity by half. For orientation: Kd means the concentration at which binding is half-saturated. In general, Km refers to the concentration of substrate that gives half-maximal velocity.
